Laboratory results published in patent publication US20070099939A1, “Fungicidal mixtures for controlling rice pathogens” (priority 2003, published 2007).

Tested on: Cochliobolus miyabeanus
Assay: Activity against brown spot of rice caused by Cochliobolus miyabeanus, protective application
Type: in vivo
Details: individual active compound, inoculated next day, assessed after six days
Experimental: The active compounds, separately or jointly, were prepared as a stock solution with 0.25% by weight of active compound in acetone or DMSO. 1% by weight of the emulsifier Uniperol® EL (wetting agent having emulsifying and dispersing action based on ethoxylated alkylphenols) was added to this solution, and the solution was diluted with water to the desired concentration.
Use Example—Activity Against Brown Spot of Rice Caused by Cochliobolus Miyabeanus, Protective Application
Leaves of potted rice seedlings of the cultivar “Tai-Nong 67” were sprayed to runoff point with an aqueous suspension of the concentration of active compound stated below. The next day, the plants were inoculated with an aqueous spore suspension of Cochliobolus miyabeanus. The test plants were then placed in climatized chambers at 22-24° C. and 95-99% relative atmospheric humidity for six days. The extent of the development of the infection on the leaves was then determined visually.
Evaluation was carried out by determining the percentage of infected plants. These percentages were converted into efficacies.
The efficacy (E) is calculated as follows using Abbot's formula: E=(1−α/β)·100 • α corresponds to the fungicidal infection of the treated plants in % and • β corresponds to the fungicidal infection of the untreated (control) plants in %
An efficacy of 0 means that the infection level of the treated plants corresponds to that of the untreated control plants; an efficacy of 100 means that the treated plants are not infected.
The expected efficacies of mixtures of active compounds are determined using Colby's formula (R.S. Colby, Weeds, 15, 20-22, 1967) and compared with the observed efficacies.
Colby's Formula: E=x+y−x·y/100 • E expected efficacy, expressed in % of the untreated control, when using the mixture of the active compounds A and B at the concentrations a and b • x efficacy, expressed in % of the untreated control, when using the active compound A at the concentration a • y efficacy, expressed in % of the untreated control, when using the active compound B at the concentration b

Compound	Efficacy in % of the untreated control (4 ppm in the spray liquor) [%]	Efficacy in % of the untreated control (1 ppm in the spray liquor) [%]
C[C@H](Nc1c(-c2c(F)cc(F)cc2F)c(Cl)nc2ncnn12)C(F)(F)F [B]	44	
CC1CCN(c2c(-c3c(F)cc(F)cc3F)c(Cl)nc3ncnn23)CC1 [I, 5-chloro-7-(4-methylpiperidin-1-yl)-6-(2,4,6-trifluorophenyl)-[1,2,4]triazolo[1,5-a]pyrimidine]	33	
CC1=C(C(=O)Nc2ccccc2)SCCO1 [II (carboxin), N-phenyl-2-methyl-5,6-dihydro-[1,4]oxathiine-3-carboxamide]	0	0
CC1CCN(c2c(-c3c(F)cccc3Cl)c(Cl)nc3ncnn23)CC1 [A]	44	
